Where two headings read alike, the source gives them in different places. Non-standard residues stand in square brackets, D forms with d. Residues, ends and D or L forms follow the SMILES beside them.
Legend:
human gastric explants [1] = assay: Ex vivo toxicity assay, LDH release from human gastric explants; assay type: cell-based; settings: peptides 100 µM, CTAB 300 µM, % of total release
Description: To further evaluate the innocuity of the peptides, ex vivo experiments were performed using human explants as previously described. Briefly, human gastric tissue samples were obtained from patients undergoing surgery at the Hospital Laveran (Marseille, France), unit of gastrointestinal surgery according to a collaborative clinical transfer project. The procedures were approved by the French ethic committee (CODECOH n° DC-2019-3402). All patients agreed for the use of their tissues for research purposes. Samples were taken from healthy patients during sleeve gastrectomy from macroscopically unaffected area as identified by the surgeons. After resection, the specimens were placed in ice-cold oxygenated sterile DMEM solution containing 1% streptomycin/penicillin solution and 50 μg/mL gentamycin and were directly transferred to the laboratory within 15 min on ice. Gastric tissues were extensively washed and maintained in ice-cold culture media containing 1% streptomycin/penicillin solution and 50 μg/mL gentamycin. Tissues were cleaned from vascular vessels and conjunctive tissue using forceps under binocular microscope. Gastric explants (wet weight of 20–30 mg) were then isolated from the cleaned resections using surgical punch (diameter of 0.5 cm^2). […] Finally, the explants were washed three times with culture media without antibiotics and transferred into 24-well plates before being incubated in RPMI media without fetal bovine serum, antibiotics and phenol red at 37 °C in the 5% CO2 incubator with 100 µM of peptides for 2, 4 or 8 h. Phenol red was omitted from the culture media since it interferes with the lactate dehydrogenase (LDH) assay. The detergent cetyl-trimethylammonium bromide (CTAB) at 300 µM was used as positive control of tissue damages. At the end of the incubation, the explants were collected and washed three times with PBS^++ and were fixed overnight at 4 °C with PFA diluted at 4% in PBS. After that, gastric explants were washed twice with PBS and were included in an inclusion medium (TFM-EMS), in transverse position to allow cutting in the crypt-villosity axis using cryostat (Leica CM3050) (Leica Microsystems, Nanterre, France). Four sections of 5 µm thickness were obtained per explant, each section being separated by 100 µm from the next in order to cover all the tissue. Explants were then stained using hematoxylin and eosin (H&E) staining protocol. Briefly, samples were incubated for 8 min in hematoxylin (Sigma-Aldrich) and then allowed to stain by incubation with water for 2 min. Then explants were incubated for 1 min in eosin (Sigma-Aldrich) and then in water for 1 min. This was followed by incubation of explants with ethanol at concentration of 70% then 95% and finally 100% for 2 min each. After blotting excess ethanol, gastric explants were incubated for 15 min with xylene and mounted with coverslip using Eukitt mounting media (EMS, Hatfield, PA, USA). Finally, explants were left overnight to dry before examination of tissue organization under the microscope (Leitz DMRB microscope (Leïca), equipped with Leïca DFC 450C camera). Quantification of the release of LDH was also used in addition to microscopic observations to evaluate the impact of peptides on human gastric explants. Briefly, after 2, 4 or 8 h of incubation of the explants with the peptides, the supernatants of the wells were collected and stored at -80 °C before the LDH assay. The LDH activity was measured using previously described protocol with minor changes. Briefly, 50 µL of supernatants obtained from explants were mixed with 200 µL of Tris-Lactate buffer (containing Tris HCl at 86 mM, L-Lactate at 56 mM and KCl at 172 mM, pH 9.3, all from Sigma-Aldrich) and 20 µL of NAD (at 172 mM, Sigma-Aldrich) into well of 96-wells plates. Increase in OD339nm was then measured at 30 °C after 0, 1, 5, and 10 min using microplate reader (Synergy Mx, Biotek). […]

human gastric explants [2] = assay: Ex vivo toxicity assay, histological examination (H&E) of human gastric explants; assay type: cell-based; settings: 2, 4 or 8 h; peptides 100 µM, CTAB 300 µM; H&E staining
Description: To further evaluate the innocuity of the peptides, ex vivo experiments were performed using human explants as previously described. Briefly, human gastric tissue samples were obtained from patients undergoing surgery at the Hospital Laveran (Marseille, France), unit of gastrointestinal surgery according to a collaborative clinical transfer project. The procedures were approved by the French ethic committee (CODECOH n° DC-2019-3402). All patients agreed for the use of their tissues for research purposes. Samples were taken from healthy patients during sleeve gastrectomy from macroscopically unaffected area as identified by the surgeons. After resection, the specimens were placed in ice-cold oxygenated sterile DMEM solution containing 1% streptomycin/penicillin solution and 50 μg/mL gentamycin and were directly transferred to the laboratory within 15 min on ice. Gastric tissues were extensively washed and maintained in ice-cold culture media containing 1% streptomycin/penicillin solution and 50 μg/mL gentamycin. […] Quantification of the release of LDH was also used in addition to microscopic observations to evaluate the impact of peptides on human gastric explants. […] The LDH activity was measured using previously described protocol with minor changes. […] Increase in OD339nm was then measured at 30 °C after 0, 1, 5, and 10 min using microplate reader (Synergy Mx, Biotek). […]

H. pylori (ATCC 43504) = tested on: H. pylori (ATCC 43504)
Description: The bactericidal activity of peptides was assessed using the time kill assay as previously described with some modifications. Briefly, overnight liquid culture of H. pylori (ATCC 43504) was prepared and an optical density measurement (OD600nm) was taken to provide an estimation of cell numbers in the culture. Bacterial suspension was then centrifuged at 3000 rpm for 5 min and the bacterial pellet was then resuspended in sterile PBS pH6 at approximatively 10^7 CFU/mL. The pH of PBS was changed from 7 to 6 with HCl to mimic the micro-environment surrounding H. pylori in the stomach. Indeed, although the lumen of the stomach is around 1–2, H. pylori is able, through the activity of its urease, to create a local micro-environment around it of pH 6 [31]. In addition to PBS pH 6, the time kill assay was also performed in PBS pH 6 containing a mixture of porcine stomach mucins MUC2 and MUC3 (at 1 mg/mL, final concentration) or in the presence of human gastric cells N87 producing human mucus. In that particular case, N87 cells were seeded onto 96-wells plates and left to grow for 48–72 h until they reached confluence. At that time, wells were aspirated and bacterial suspension in PBS pH 6 were added to the wells. In all cases, resuspended bacteria (200 µL) were treated with peptides or the conventional antibiotic amoxicillin at a final concentration corresponding to five times their MIC. Bacteria were then incubated in micro-aerobic conditions at 37 °C using GasPak units. […] The petri dishes were then incubated 16 h at 37 °C in microaerophilic conditions before counting of growing colonies. The number of surviving bacteria was calculated using the number of observed colonies and the dilution factor. The experiment was done in triplicate.

[3] = tested on: total lipids extracted from H. pylori (ATCC 43504); assay: Lipid insertion assay (lipid monolayer, critical pressure of insertion); design: species or system biophysical; settings: peptide 1 µM, PBS pH 7.4, from the line fits of Figure 4
Description: Peptide-lipid interaction was measured using reconstituted lipid monolayer at the air-water interface as previously described. Total lipids were extracted from overnight cultures of H. pylori (ATCC 43504) using Folch extraction procedure as previously described. Extracted total lipids were dried, resolubilized in chloroform:methanol (2:1, v/v) and stored at -20 °C under nitrogen. For peptide-lipid interaction assay, total lipid extract was spread using a 50 μL Hamilton's syringe at the surface of 800 μL of sterile PBS creating a lipid monolayer at the air-water interface. Lipids were added until the surface pressure reached the desired value. […] The variation of the surface pressure caused by peptide injection was then continuously monitored using a fully automated microtensiometer (μTROUGH SX, Kibron Inc., Helsinki, Finland) until reaching equilibrium (maximal surface pressure increase being usually obtained after 15-25 min). […] Variation of surface pressure was plotted as a function of initial surface pressure and the critical pressure of insertion of each peptide into H. pylori lipids was calculated as the theoretical value of initial pressure of lipid monolayer not permissive to peptide insertion, i.e., giving a variation of pressure equal to 0 mN/m.

CC[C@H](C)[C@H](NC(=O)CNC(=O)[C@H](CO)NC(=O)[C@H](CC(C)C)NC(=O)[C@@H](N)Cc1ccccc1)C(=O)N[C@H](C(=O)NCC(=O)N[C@@H](CCSC)C(=O)N[C@@H](CC(C)C)C(=O)N[C@H](C)C(=O)N[C@@H](CCCCN)C(=O)N[C@@H](CC(C)C)C(=O)N[C@@H](Cc1ccccc1)C(N)=O)C(C)C [NST1, H-Phe^1-Leu^2-Ser^3-Gly^4-Ile^5-Val^6-Gly^7-Met^8-Leu^9-D-Ala^10-Lys^11-Leu^12-Phe^13-NH2] (H-FLSGIVGML[dA]KLF-NH2)
LDH release (human gastric explants [1]; 2 h): 8.3% | LDH release (human gastric explants [1]; 4 h): 12.0% | LDH release (human gastric explants [1]; 8 h): 25.0% | tissue organization by microscopic observation (human gastric explants [2]): tissue organization close to the negative controls | decrease of the number of CFUs (H. pylori (ATCC 43504); 20 min, PBS pH 6, 5-times MIC): three | killing (H. pylori (ATCC 43504); 20 min, PBS pH 6, 5-times MIC): 99% | killing (H. pylori (ATCC 43504); 60 min, presence of mucus (porcine MUC2/MUC3 1 mg/mL or N87 cells), 5-times MIC): 91–98% | survival (H. pylori (ATCC 43504); 3 h, PBS pH 6, 5-times MIC): 0% | critical pressure of insertion (CPI) [3]: 38.65 mN/m
